Results published in PubChem BioAssay (NCI).
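Method: 48-hour compound exposure of cells in 96-well plates, five concentrations, linear interpolation of endpoints. GI50 = concentration required for 50% inhibition of growth. Definition used: TGI = concentration required for complete inhibition of growth.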

Key:
Assay in all cases: DTP human tumour cell line panel, 48 h
SW-620 colon = system: SW-620 colon
NCI/ADR-RES ovarian = system: NCI/ADR-RES ovarian
MOLT-4 leukemia = system: MOLT-4 leukemia
A549 NSCLC = system: A549 NSCLC
SK-OV-3 ovarian = system: SK-OV-3 ovarian
NCI-H226 lung = system: NCI-H226 lung
HT29 colon = system: HT29 colon
NCI-H460 lung = system: NCI-H460 lung
UACC-257 melanoma = system: UACC-257 melanoma
BT-549 breast = system: BT-549 breast

Structure (SMILES) | TGI (SW-620 colon) [µM] | TGI (NCI/ADR-RES ovarian) [µM] | TGI (MOLT-4 leukemia) [µM] | TGI (A549 NSCLC) [µM] | TGI (SK-OV-3 ovarian) [µM] | TGI (NCI-H226 lung) [µM] | TGI (HT29 colon) [µM] | TGI (NCI-H460 lung) [µM] | TGI (UACC-257 melanoma) [µM] | TGI (BT-549 breast) [µM] | GI50 (BT-549 breast) [µM] | GI50 (SW-620 colon) [µM] | GI50 (NCI/ADR-RES ovarian) [µM] | GI50 (A549 NSCLC) [µM] | GI50 (SK-OV-3 ovarian) [µM] | GI50 (NCI-H226 lung) [µM] | GI50 (UACC-257 melanoma) [µM] | GI50 (HT29 colon) [µM] | GI50 (NCI-H460 lung) [µM]
O=S1(=O)OCCOS(=O)(=O)C1(F)Cc1ccccc1 | > 100 | > 100 | > 100 | > 100 | > 100 | > 100 | > 100 | > 100 |  |  |  |  |  |  |  |  |  |  | 
CN1C/C(=C\c2cccs2)C2=NN(c3ccccc3)C(c3cccs3)C2C1 (centres undefined) | > 100 | > 100 | > 100 | > 100 | > 100 | > 100 | 22.4 | > 100 | > 100 | > 100 |  |  |  |  |  |  |  |  | 
O=C1C=C(NCCc2ccc(O)c([N+](=O)[O-])c2)C(=O)c2[nH]cnc21 | > 100 | > 100 | 38.2 | 93.4 |  |  | > 100 | 69.6 | 38.7 |  |  |  |  |  |  |  |  |  | 
O=C(CC(C(=O)c1ccsc1)c1cccs1)c1ccccc1 (centres undefined) | > 100 |  | > 100 | 54.8 | > 100 | > 100 | > 100 | > 100 | > 100 |  |  |  |  |  |  |  |  |  | 
O=C(CCCc1cccc2[nH]c3c(c12)CN(Cc1ccccc1)CC3)c1ccc(F)cc1 | > 100 | > 100 | > 100 | > 100 | > 100 | > 100 | > 45.8 | > 100 | > 100 | > 100 |  |  |  |  |  |  |  |  | 
COc1ccc(C2CC(c3sc(Nc4ccc(C)cc4)nc3C)=NN2)cc1 (centres undefined) | 38.2 | 32.4 | 32.7 | 33 | 44.1 | 33.5 | 25.6 | 30.3 | 32.6 |  |  |  |  |  |  |  |  |  | 
CCC1(O)C(=O)OCc2c1cc1n(c2=O)Cc2cc3cc4c(cc3nc2-1)OCO4 (centres undefined) | 18.7 | 0.0277 | 0.178 | 0.259 | 1.81 | 0.0252 | 19.9 | 0.0156 | 0.822 | > 100 | < 0.01 |  |  |  |  |  |  |  | 
Cc1cccc2c(=O)c3cccc([C@H](C)C(=O)O)c3oc12 | > 100 | > 100 | > 100 | > 100 | > 100 | > 100 | > 100 | > 100 | > 100 | > 100 |  |  |  |  |  |  |  |  | 
CCOC(=O)/C(C(N)=O)=C(\O)C(=O)/C=C(\O)c1ccc(Cl)cc1 | 50.1 | 45 | 40.6 | > 100 | > 100 | 48.8 | 41.4 | 31.5 | 32.2 | 33.6 |  |  |  |  |  |  |  |  | 
CC(=O)OCC1OC(n2c(C)c(C)cc(C#N)c2=S)C(OC(C)=O)C(OC(C)=O)C1OC(C)=O (centres undefined) | > 100 |  | > 100 | > 100 |  | > 100 | > 100 | > 100 | > 100 | > 100 |  |  |  |  |  |  |  |  | 
O=C(N/N=C\c1ccc(Cl)cc1)Nc1ccc2ccccc2c1 | > 100 | > 100 | > 100 | > 100 | > 100 | > 100 | > 100 | > 100 | > 100 | > 100 |  |  |  |  |  |  |  |  | 
COc1cc(/C=C2\C(=O)N(c3cccc(NC(C)=O)c3)C(c3ccccc3)S2(=O)=O)cc(OC)c1OC (centres undefined) | > 100 | > 100 | 86.3 | > 100 | > 100 | > 100 | > 100 | > 100 | > 100 | > 100 |  |  |  |  |  |  |  |  | 
CCC1(CC)C(=O)NC(=O)NC1=S | > 100 |  | > 100 | > 100 | > 100 | > 100 | > 100 | > 100 | > 100 |  |  |  |  |  |  |  |  |  | 
CCN(CC)CCC(=O)/C=C/c1ccc(Cl)c(Cl)c1 | 5.63 | 4.66 | > 10 | > 10 |  | > 10 |  | > 10 | > 10 | > 10 |  |  |  |  |  |  |  |  | 
CC1OC(NCCNCCNC2OC(C)C(O)C(O)C2O)C(O)C(O)C1O (centres undefined) | > 100 | > 100 | > 100 | > 100 |  | > 100 | > 100 | > 100 | > 100 | > 100 |  |  |  |  |  |  |  |  | 
O=[N+]([O-])c1ccc(C[P+]2(c3ccccc3)CCCCC2)cc1 (tested in a mixture with another compound) | > 100 |  | > 100 | > 100 | > 100 |  |  | > 100 | > 100 |  |  |  |  |  |  |  |  |  | 
Cc1nc2c(Cl)cc(Cl)cc2c2c1CCO2 | > 100 | > 100 | > 100 | > 100 |  | > 100 | > 100 | > 100 | > 100 | > 100 |  |  |  |  |  |  |  |  | 
O=C1c2c(c3c4cc(F)ccc4oc3c3[nH]c4ccccc4c23)C(=O)N1O | > 100 | > 100 |  | > 100 | 19.6 | 73.8 | > 100 | 10.6 | 6.68 |  |  | 1.24 | 2.9 | 27.1 | 2.48 | 3.85 | 2.31 | 3.06 | 0.565
CC(O)C(CO)NC(=O)C1CSSCC(NC(=O)C(N)Cc2ccccc2)C(=O)NC(Cc2ccccc2)C(=O)NC(Cc2c[nH]c3ccccc23)C(=O)NC(CCCCN)C(=O)NC(C(C)O)C(=O)N1 (centres undefined) | > 100 | > 100 | > 100 | > 100 |  | > 100 | > 100 | > 100 | > 100 |  |  |  |  |  |  |  |  |  | 
CCC(C)C(Nc1c2ccccc2nc2c(C(=O)NCCN(C)C)cccc12)C(=O)O (centres undefined) | > 100 | 77.6 | > 100 | > 100 | > 100 | 32.1 | 17.1 |  |  |  |  |  |  |  |  |  |  |  | 
COc1ccc(-c2c(C#N)c(N)[nH]c(=S)c2C#N)cc1 | > 100 | > 100 | > 100 | > 100 |  | > 100 | > 100 | > 100 | > 100 | 85.4 |  |  |  |  |  |  |  |  | 
O=C(COc1cc(=O)oc2ccccc12)c1ccccc1 | > 100 |  | > 100 | > 100 |  | 49 | 45.7 | > 100 | > 100 | > 100 |  |  |  |  |  |  |  |  | 
